Patent publication US7812045B2, “Antifungal triazole derivatives” (Daewoong Pharmaceutical Co., Ltd., priority 2005, dated 2010)
Values after ≈ are worked out from the molar mass of the structure shown. Where two headings read alike, the source gives them in different places.

How the values were obtained:
[1] = tested on: HepG2 cells
Protocol: HepG2 cells were aliquoted at a population of 5×10^4 counts per well of 96-well plates and grown at 37° C. in a 5% CO2 incubator for 1 day. The culture medium in each well was replaced with a fresh medium containing the compounds of interest, followed by overnight incubation in the incubator. Following the addition of 100 μl of a 100 μg/ml Neutral red solution into each well, the cells were stained for 3 hours in the incubator and fixed in 1% formaldehyde with 1% CaCl2. The cells were destained in 1% glacial acetic acid plus 50% ethanol, followed by measurement for absorbance at 540 nm. Cytotoxicity was expressed as percentages of optical density relative to that of the control, treated with none of the compounds.

[2] = tested on: Aspergillus flavus ATCC MYA-1004; assay: In vitro assay for antifungal activity (MIC90); type: cell-based; conditions: RPMI 1640, growth read after 48 hours, duplicate; for MIC90: read-out: MIC90 (concentration at which 90% of the fungi were inhibited compared to the negative control)
Protocol: (§1) Fungal strains to be tested were inoculated onto Sabouraud dextrose agar, YM agar, and potato dextrose agar and cultured at 35° C. for two to three days. Individual single colonies of the yeast fungi selected out of the cultured strains were suspended in 5 ml of 0.85% sterile saline, followed by correction to adjust the absorbance thereof at 530 nm to 0.108. The suspensions were diluted serially by 1:50 and then 1:20 in RPMI 1640 media to prepare liquid inocula ranging in cell count from 1.0×10^3 to 5.0×10^3 CFU/ml. As for filamentous fungi, their spores were suspended in 0.85% sterile saline and the suspensions were corrected with sterile saline to show optical transmittance at 530 nm of 80 to 82%. A dilution of 1:50 was made with RPMI 1640 media to prepare liquid inocula having cell counts from […] to 5×10^4 CFU/ml.
(§2) Antifungal samples were prepared by diluting the compounds of the present inventions in RPMI 1640 media to serial concentrations from 0.0625 to 32 μg/ml. As a vehicle, DMSO was contained in a final concentration of 1% (V/V) in the antifungal samples. 0.1 ml of each of the dilutions in series was added to equal volume of each of the fungal inocula.

[3] = tested on: Aspergillus fumigatus ATCC MYA-1163; assay: In vitro assay for antifungal activity (MIC90); type: cell-based; conditions: RPMI 1640, growth read after 48 hours, duplicate; for MIC90: read-out: MIC90 (concentration at which 90% of the fungi were inhibited compared to the negative control)
Protocol: as §1, §2

[4] = tested on: Aspergillus niger ATCC 9142; assay: In vitro assay for antifungal activity (MIC90); type: cell-based; conditions: duplicate; for MIC90: ATCC9142, RPMI 1640, growth read after 48 hours, read-out: MIC90 (concentration at which 90% of the fungi were inhibited compared to the negative control)
Protocol: as §1, §2

[5] = tested on: Aspergillus terreus ATCC 28301; assay: In vitro assay for antifungal activity (MIC90); type: cell-based; conditions: duplicate; for MIC90: ATCC28301, RPMI 1640, growth read after 48 hours, read-out: MIC90 (concentration at which 90% of the fungi were inhibited compared to the negative control)
Protocol: as §1, §2

[6] = tested on: Candida albicans ATCC 32033; assay: In vitro assay for antifungal activity (MIC90); type: cell-based; conditions: duplicate; for MIC90: ATCC32033, RPMI 1640, growth read after 24 hours, read-out: MIC90 (concentration at which 90% of the fungi were inhibited compared to the negative control)
Protocol: as §1, §2

[7] = tested on: Candida glabrata ATCC 34138; assay: In vitro assay for antifungal activity (MIC90); type: cell-based; conditions: duplicate; for MIC90: Nakaseomyces glabratus, ATCC34138, RPMI 1640, growth read after 24 hours, read-out: MIC90 (concentration at which 90% of the fungi were inhibited compared to the negative control)
Protocol: as §1, §2

[8] = tested on: Candida krusei ATCC 6258; assay: In vitro assay for antifungal activity (MIC90); type: cell-based; conditions: duplicate; for MIC90: Pichia kudriavzevii, ATCC6258, RPMI 1640, growth read after 24 hours, read-out: MIC90 (concentration at which 90% of the fungi were inhibited compared to the negative control)
Protocol: as §1, §2

[9] = tested on: Cryptococcus neoformans ATCC 4065; assay: In vitro assay for antifungal activity (MIC90); type: cell-based; conditions: for MIC90: ATCC4065, RPMI 1640, duplicate, read-out: MIC90 (concentration at which 90% of the fungi were inhibited compared to the negative control)
Protocol: as §1, §2

[10] = tested on: Candida albicans (ATCC 36082); assay: In vivo assay for antifungal activity (survival of infected mice); conditions: ICR mice infected i.v. with Candida albicans ATCC 36082; for % Survival on Day 21: 20 mg/kg orally once a day for seven days (day 0 to day 6), groups of 10
Protocol: Candida albicans (ATCC 36082) was grown in YM broth on a rotary shaker (200 rpm, 26° C.) for about 12 hours to a concentration of 2.5×10^7 CFU/ml and used to infect ICR mice at a dose of 0.2 ml/head via caudal veins. Suspensions or solutions of the azole compounds in a 25% beta-hydroxypropyl methylcellulose base were orally administered at a dose of 20 mg/kg to respective infected ICR mice in groups of 10, the condition and body weights of the mice were monitored, and autopsies were finally conducted. For a negative control, the vehicle alone was used while fluconazole was administered to a positive control. The mice were inoculated once with the fungal preparation on the day of commencement of the administration. The test materials of interest and the positive control material were orally administered to the inoculated mice once a day for seven days from day 0 to day 6, with the first oral administration made five hours after the fungal inoculation (day 0). The periods of time for which the infected mice lived were counted.
The number of mice which survived the fungal infection for 21 days following the inoculation was represented as % survival for each test group, and the results are given in Table 11, below. All members of the negative control were dead 8 days after the fungal infection, while all of the groups administered with Compound 50 were dead 18 days after the fungal infection.

[11] = Assay for acute toxicity; type: in vivo; conditions: mice; oral administration, to a dose of 1000 mg/kg; observed for two weeks; suspension in 25% beta-hydroxypropyl methylcellulose base or polyethylene glycol 400
[12] = tested on: HepG2 cells; assay: Assay for cytotoxicity in human hepatocytes (Neutral red); conditions: overnight incubation, absorbance at 540 nm, triplicate, compound concentration not given
[13] = RPMI 1640, growth read after 48 hours
[14] = RPMI 1640, growth read after 24 hours

SMILES	Cytotoxicity (percentages of optical density relative to that of the control) [1]	MIC90 [2]	MIC90 [3]	MIC90 [4]	MIC90 [5]	MIC90 [6]	MIC90 [7]	MIC90 [8]	MIC90 [9]	% Survival on Day 21 [10]	acute toxicity: toxic syndromes observed [11]	other results
Cc1c2c(Cl)cccc2nn1[C@H](C)[C@](O)(Cn1cncn1)c1ccc(F)cc1F [Example 68]	2.4%											
C[C@@H](N1NCc2ccccc21)[C@](O)(Cn1cncn1)c1ccc(F)cc1F [Example 50, (2R,3R)-2-(2,4-Difluorophenyl)-3-(2H-indazol-1-yl)-1-(1H-1,2,4-triazol-1-yl)butan-2-ol]		2 µg/mL (≈ 5.39 µM)	4 µg/mL (≈ 10.8 µM)	8 µg/mL (≈ 21.5 µM)	4 µg/mL (≈ 10.8 µM)	≤ 0.015 µg/mL	2 µg/mL (≈ 5.39 µM)	0.5 µg/mL (≈ 1.35 µM)	0.063 µg/mL (≈ 0.17 µM)	0%	no toxic syndromes	time after the fungal infection at which all mice of the group were dead ([10]; 20 mg/kg orally once a day for seven days): 18 days; Cytotoxicity (percentages of optical density relative to that of the control) [12]: 5.2%
C[C@@H](N1Cc2cc(NCc3ccc(Cl)cc3)ccc2N1)[C@](O)(Cn1cncn1)c1ccc(F)cc1F [Example 245, (2R,3R)-3-(5-(4-chlorobenzylamino)-1H-indazol-2-yl)-2-(2,4-difluorophenyl)-1-(1H-1,2,4-triazol-1-yl)butan-2-ol]		0.5 µg/mL (≈ 0.979 µM)	0.5 µg/mL (≈ 0.979 µM)	2 µg/mL (≈ 3.91 µM)	0.5 µg/mL (≈ 0.979 µM)	≤ 0.015 µg/mL	4 µg/mL (≈ 7.83 µM)	0.5 µg/mL (≈ 0.979 µM)	0.125 µg/mL (≈ 0.245 µM)	40%	no toxic syndromes	Cytotoxicity (percentages of optical density relative to that of the control) [12]: 9.9%
C[C@@H](n1ncc2cc(NCc3cccc(Cl)c3)ccc21)[C@](O)(Cn1cncn1)c1ccc(F)cc1F [Example 240]	5.2%											
C[C@@H](n1ncc2cc(N(C)C)ccc21)[C@](O)(Cn1cncn1)c1ccc(F)cc1F [Example 310]										40%	no toxic syndromes	MIC90 (concentration at which 90% of the fungi were inhibited compared to the negative control) [2]: 1 µg/mL; MIC90 (concentration at which 90% of the fungi were inhibited compared to the negative control) [3]: 2 µg/mL; MIC90 (concentration at which 90% of the fungi were inhibited compared to the negative control) [4, 13]: 2 µg/mL; MIC90 (concentration at which 90% of the fungi were inhibited compared to the negative control) [5, 13]: 2 µg/mL; MIC90 (concentration at which 90% of the fungi were inhibited compared to the negative control) [6, 14]: 0.063 µg/mL; MIC90 (concentration at which 90% of the fungi were inhibited compared to the negative control) [7, 14]: 8 µg/mL; MIC90 (concentration at which 90% of the fungi were inhibited compared to the negative control) [8, 14]: 1 µg/mL; MIC90 (concentration at which 90% of the fungi were inhibited compared to the negative control) ([9]; RPMI 1640, duplicate): 0.5 µg/mL
Cc1nn([C@H](C)[C@](O)(Cn2cncn2)c2ccc(F)cc2F)c2cccc(Cl)c12 [Example 69]	1.6%											
C[C@@H](n1nc(Cl)c2ccccc21)[C@](O)(Cn1cncn1)c1ccc(F)cc1F [Example 52]	5.6%											
C[C@@H](n1ncc2cc([N+](=O)[O-])ccc21)[C@](O)(Cn1cncn1)c1ccc(F)cc1F [Example 234, (2R,3R)-2-(2,4-difluorophenyl)-3-(5-nitro-1H-indazol-1-yl)-1-(1H-1,2,4-triazol-1-yl)butan-2-ol]		1 µg/mL (≈ 2.41 µM)	2 µg/mL (≈ 4.83 µM)	2 µg/mL (≈ 4.83 µM)	2 µg/mL (≈ 4.83 µM)	≤ 0.015 µg/mL	4 µg/mL (≈ 9.65 µM)	0.5 µg/mL (≈ 1.21 µM)	0.125 µg/mL (≈ 0.302 µM)	40%	no toxic syndromes	
